Row | Compound | melting point
1 | O=[N+]([O-])C1([N+](=O)[O-])CN(C(F)(F)F)C1 | 70 to 71 °C
2 | C#CCOc1cc(C(=O)OC)ccc1F | 60.5 to 61.5 °C
3 | Cc1ccc(C2COc3c(C)c(C)c(NC(=O)CC(C)(C)C)c(C)c32)nc1 (configuration not stated) | 170 to 171 °C
4 | N#Cc1ccccc1CCc1n[nH]c2c1c(=O)n(-c1ccccc1)c1ncccc21 | 316 °C
5 | CCOC(=O)C(NC(C)=O)C(O)c1ccc(C=Cc2csc3ccccc23)s1 (configuration not stated) | 157 to 159 °C
6 | O=C(c1ccc(O)nc1)N1CCN=C1Nc1c(Cl)cccc1Cl | 256 to 258 °C
7 | O=C(Nc1ccccc1)c1cnc2c(C(F)(F)F)cccc2c1-c1ccccc1 | 207 to 208 °C
8 | CN(C(=O)c1cccc(S(=O)(=O)N(C)c2ccc(Br)cc2)c1)c1ccc(Br)cc1F | 136 to 137 °C
9 | COC(=O)c1ccc(-c2coc(-c3ccc4c(c3)C(C)(C)CCC4(C)C)c2)cc1 | 109 to 111 °C
10 | O=C(O)COc1cccc2c1CCc1sc(NCCC(c3ccccc3)c3ccccc3)nc1-2 | 240 to 243 °C
11 | CCOC(=O)c1cccc2nc(C(C)C)n(Cc3ccc(-c4ccccc4-c4nnn[nH]4)cc3)c12 | 144 to 146 °C
12 | O=S(=O)(Cl)c1ccccc1CCl | 43 to 45 °C
13 | CCOC(=O)Oc1ccc(N)c(C(=O)O)c1 | 157 to 158 °C
14 | O=C(NCCOCc1ccc(C(=O)c2ccccc2)cc1)Nc1ccccc1 | 129 to 132 °C
15 | Cc1nc(-c2cccnc2)sc1-c1ccnc(Nc2cc(Cl)c(N3CCOCC3)c(Cl)c2)n1 | 276 to 278 °C
16 | CCNC(=O)c1c(C)cccc1N(C)C(C)(C)C | 101 to 103 °C
17 | COC(=O)c1n[nH]cc1[N+](=O)[O-] | 115 to 117 °C
18 | N=C(N)c1ccc(C(=O)Nc2cc(C(=O)NCCC(=O)O)ccc2OCc2ccccc2)cc1 | > 250 °C
19 | CC(=O)NCc1cccc(-c2csc(N=C(N)N)n2)n1 | 198 to 200 °C
20 | O=C(CNc1ccc(O)cc1)N1CCC(Cc2ccc(F)cc2)CC1 | 155 to 157 °C
21 | COC(=O)c1cccc2c1CC(c1csc(-c3ccncc3)n1)C(=O)N2 (configuration not stated) | 230 to 231 °C
22 | N#Cc1cnn(-c2nc(Cl)c(C(F)(F)F)cc2Cl)c1N | 168 to 171 °C
23 | COc1cc(Nc2c(C#N)cnc3cc(-c4ccc(CNCCS(C)(=O)=O)cc4)ccc23)c(Cl)cc1Cl | 245 to 246 °C
24 | O=C(O)CCCCC(=NOCc1ccc(OCc2noc(-c3ccccc3)n2)cc1)c1ccccc1 | 88 to 89 °C

Row | Compound | melting point
25 | O=S(=O)(c1ccc(-c2ccc3cnc(Nc4ccc(N5CCOCC5)cc4)nn23)cc1)N1CCCC1 | 182 to 184 °C
26 | Cn1ccnc1Sc1ccc(Nc2c(C#N)cnc3cc(/C=C/CO)ccc23)cc1Cl | 220 to 240 °C
27 | C[C@H](NC(=O)OC(C)(C)C)C(=O)OCCCNc1cccc2c1C(=O)c1ccccc1C2=O | 58 °C
28 | O=C(O)c1cccc(NC(=O)C(CS)Cc2noc3ccccc23)c1 (configuration not stated) | 207 to 209 °C
29 | CC12CCC3C(CC=C4C=C(OCc5ccccc5)CCC43C)C1CCC2=O (configuration not stated) | 172 to 178 °C
30 | Cc1sc2c(c1C)C(c1ccc(Cl)cc1)=NC(CC(=O)Nc1ncccn1)c1nnc(C)n1-2 (configuration not stated) | 251 to 253 °C
31 | COc1cccc2c(Nc3cccc(Br)c3)c(C#N)cnc12 | 210 to 212 °C
32 | COc1cc(Oc2cccc(C(F)(F)F)c2)nc(C(=O)NN=C(C)C)c1 | 134 to 136 °C
33 | Cc1cc(-n2cncn2)c2cc(Cl)cc(Cl)c2n1 | 220 to 222 °C
34 | CCCCC(C)c1cc(O)c2c(c1)OC(C)(C)CC2C1=CCN(Cc2ccc3ccccc3c2)CC1 (configuration not stated) | 49 to 52 °C
35 | COc1cc(C=CC(=O)c2cc(OC)c(OC)c(OC)c2)cc([N+](=O)[O-])c1O | 123 to 125 °C
36 | CC(=O)c1c(CCN2CCN(C)CC2)nc(-c2ccccc2)nc1-c1cccc([N+](=O)[O-])c1 | 88 to 91 °C
37 | CON(Cc1nc2c(N)nc(C)c(C)c2n1CC(C)C)C(=O)C1CC1 | 135 to 137 °C
38 | CNC(=O)Oc1ccc(NC(=O)COC)c(C)c1 | 130 to 132 °C
39 | CCN(CC)C(=O)COC(=O)c1cccc(NC(=O)C(CSC(C)=O)Cc2ccccc2)c1 (configuration not stated) | 143 to 144 °C
40 | CCc1nc(NC(C)=O)nc(NC(C)c2cccs2)n1 (configuration not stated) | 153 °C
41 | COC(=O)CCCc1cc2nc(Cl)ccc2n1S(=O)(=O)c1ccc2c(c1)CCO2 | 201 °C
42 | CCCC[C@H](C)CC(=O)N[C@H](CCC(=O)N[C@@H](C)C(=O)N[C@H](C)C(=O)O)C(=O)O | 165 to 168 °C
43 | Cc1c(CC=CCCC(=O)O)cccc1C(=O)c1ccc(Cl)cc1 | 73 °C
44 | Cn1c(CC(=O)O)cc(Cl)c1C(=O)c1ccc(S(C)=O)cc1 (configuration not stated) | 222 to 223 °C
45 | Oc1ccc(-c2c(Br)ccc3sc4ccccc4c23)cc1 | 185 to 186 °C
46 | O=c1ccoc(CO)c1O | 154 to 156 °C
47 | CCOC(=O)NN=C(c1ccc(Cl)cc1)c1ccc(NS(C)(=O)=O)cc1 | 198 to 200 °C

Results, then the compound that gave them:

Row | melting point | Compound
48 | 128 to 130 °C | COC(=O)c1ccc2c(c1)C(S(=O)(=O)c1ccccc1)CC(=O)CO2 (configuration not stated)
49 | 115 to 117 °C | CCCn1c(=Nc2ccc(C(=O)OCC)cc2)sc2ncccc2c1=O
50 | 201 to 203 °C | O=C(O)CS(=O)(=O)c1ccc2c(-c3ccc(Cl)cc3)noc2c1
51 | 64 to 66 °C | C=C(C)c1cccc(-n2c(C(F)(F)F)nn(C)c2=S)c1
52 | 284 to 286 °C | COc1cc2nc(N3CCN(C(=O)C4CC4)CC3)nc(N)c2cc1OC
53 | 219 to 222 °C | CCC(O)c1cc2c(=O)n(NS(C)(=O)=O)c(=O)[nH]c2cc1C(F)(F)F (configuration not stated)
54 | 192 °C | CC(C)(C)OC(=O)Nc1nc2cc(NC(=O)C(=O)N3CCC(Cc4ccccc4)CC3)ccc2[nH]1
55 | 77 to 80 °C | CC(NC(=O)C1CCCN1C(=O)CNP(=O)(Cc1ccccc1)Cc1ccccc1)C(=O)OCc1ccccc1 (configuration not stated)
56 | 163 to 169 °C | COC(=O)C(CSc1ccccc1)N1CC(NC(=O)C(=NO)c2ccccc2)C1=O (configuration not stated)
57 | 219 to 231 °C | O=C(O)c1cnc2c3ccccc3ccn2c1=O
58 | 157 to 159 °C | O=c1n(CCCF)nnn1-c1cc(Oc2ccc(O)cc2)c(Cl)cc1F
59 | 159 to 160 °C | CC1CCN(CC(=O)N2c3ccccc3N(C)S(=O)(=O)c3ccccc32)CC1
60 | 158 to 161 °C | Cc1cc([N+](=O)[O-])c(NC(C)C(=O)O)c([N+](=O)[O-])c1 (configuration not stated)
61 | 131 to 132 °C | Cc1nccn1-c1nc(-c2ccc(Cl)cc2)c(CCCC(=O)NCCCl)o1
62 | 86 to 88 °C | O=Cc1cc([N+](=O)[O-])ccc1Br
63 | 103 to 105 °C | CCOC(=O)NC(C)CC(NC(=O)OCC)NC(=O)OCC (configuration not stated)
64 | 133 to 137 °C | CCN(C)C(=O)N1N=C2c3cc(F)ccc3OC[C@@H]2[C@@H]1c1ccccc1 (racemic)
65 | 183 to 184 °C | CCC1(CC)OC(c2ccc(S(C)(=O)=O)cc2)=C(c2ccc(OC)c(F)c2)C1=O
66 | 152 to 154 °C | CCOC(=O)NN(CCO)c1ccc(-c2ccc(Cl)cc2)nn1
67 | 218 to 219 °C | Nc1nc(N)c(-c2cccc(Cl)c2Cl)c(C(F)(F)F)n1
68 | 150 to 152 °C | CNC(=S)NCCSCc1[nH]cnc1C
69 | 176 to 179 °C | Cn1c(C(F)F)nn(-c2cc(O)c(Cl)cc2Cl)c1=O
70 | 169 to 170 °C | COc1cc(-c2csc(C(=N)NO)n2)cc(Cl)c1OC
71 | 163 to 165 °C | Nc1ccccc1-c1nc2ccccc2c(=O)o1
72 | 130 °C | CCOC(=O)c1ccc(OC)c(OCc2nc(C)c(C)nc2C)c1

Row | melting point | Compound
73 | 188 °C | COc1ccc(Br)c(C(=O)N2CCN(S(=O)(=O)c3ccc(Cl)cc3)CC2)c1
74 | 125 to 128 °C | CCOC(=O)c1cnc2c(SC(=O)N(C)C)nccn2c1=O
75 | 173 to 175 °C | Cc1cnc2ccc(-c3cccnc3)nn12
76 | 160 to 161 °C | CCOC(=O)c1cccc(NC(=O)C=Cc2cc(C(C)C)c(C(C)C)o2)c1
77 | 255 °C | Cc1nc2c3c(ccc2n1C)C(=O)C(OC(=O)C(C)(C)C)C(c1ccccc1)O3 (configuration not stated)
78 | 188 to 190 °C | COc1ccc(OCC(O)CNC(C)(C)C)c(-c2ccc(=S)[nH]n2)c1 (configuration not stated)
79 | 71 to 73 °C | CCN(CC)C(=O)c1ccc2ccccc2c1-c1ccsc1
80 | 182 to 185 °C | CN(N)c1cc(Cl)ncn1
81 | 224 to 227 °C | Cc1ccc(-c2cc3ccc(C(=O)Nc4ccc(CN(C)C5CCOCC5)cc4)cc3o2)cc1
82 | 100 to 105 °C | CS(=O)(=O)c1ccc([C@@H](CC2CCCC2)C(=O)Nc2nc3ccccc3s2)cc1
83 | 182 to 184 °C | COc1c(OCCn2c([N+](=O)[O-])cnc2C)cnc(CNc2nc(C)nc(C)c2Cl)c1C
84 | 210 to 212 °C | COc1ccc(Cl)cc1NC(=O)[C@H]1[C@H](c2ccc(S(N)(=O)=O)cc2)C12CCCC2 (relative stereo)
85 | 136 °C | CC1CCN(c2ccc([N+](=O)[O-])cc2C(=O)c2ccc(Cl)cc2)CC1
86 | 44.6 to 45.3 °C | COCC1(CCCCCCCCCCCCC2(C(=O)NS(C)(=O)=O)CC2)CC1
87 | 144 to 145 °C | Nc1ccccc1NC(=O)CCCCCCNC(=O)c1cn2c3c(cccc13)CCC2
88 | 259 to 266 °C | CC(=O)c1ccc(C2C(C(=O)c3ccc(C(C)C)cc3)=C(O)C(=O)N2c2ccc(C)nn2)cc1 (configuration not stated)
89 | 234 °C | Cc1ccc(N2C(=O)C(O)=C(C(=NOCC(=O)O)c3ccc(C(C)C)cc3)C2c2ccc(C(C)C)cc2)nn1 (configuration not stated)
90 | 123 to 125 °C | CCN(CC)CC1CCCCN1CCNC(=O)N1c2ccccc2NC(=O)c2ccccc21 (configuration not stated)
91 | 209 °C | CCn1nccc1C(=O)Nc1cc(Oc2ccc3nc(NC(=O)C4CC4)cn3n2)ccc1F
92 | 229 to 230 °C | Nc1ccc(Cn2nc3ccccc3n2)cc1
93 | 227 to 228 °C | NC(=O)c1cc2c(Oc3ccc(Cl)c(F)c3)cncc2s1
94 | 196 to 198 °C | CC(C)(C)C(NC(=O)c1ccc(Cl)cc1)NC(=NC#N)Nc1cc(F)ccc1F (configuration not stated)
95 | 170 to 172 °C | COC(=O)c1cc2cc(C)ccc2nn1
96 | 158 to 159 °C | CC(=O)c1ccc2c(c1)ncn2-c1cccc(-c2ccccn2)c1
97 | 149 to 151 °C | O=C(NNc1ccc(NC(=S)Nc2ccccc2)cc1)c1ccccc1

Reference: a melting point compilation (Tetko et al.; mined from patent text by program, amines drawn as free bases though some values may be those of a salt)
